Data reported in PMC7823780 (Viruses, 2021).
“Also recorded” adds a separate entry of the source. Read-outs that look alike come from different tables or passages of the source.

Key:
[1] = Cytotoxicity assay, MTT, mock-infected HeLa; assay type: cell-based; conditions: human, mock-infected HeLa cells
CV-B3 = experiment: Plaque reduction assay CV-B3; assay type: cell-based, human enterovirus B; conditions: Enterovirus B
[2] = Cytotoxicity assay, MTT, mock-infected BHK-21; assay type: cell-based; conditions: Syrian hamster, mock-infected BHK-21 cells; mock-infected BHK-21, MTT
[3] = Cytotoxicity assay, mock-infected LLC-MK2; assay type: cell-based; conditions: Macaca mulatta, mock-infected LLC-MK2 cells, mock-infected LLC-MK2, MTT
PV-1 = experiment: microbe, parasite or virus in culture; assay type: cell-based; conditions: Enterovirus C, read-out: EC50 PV-1
[4] = Cytotoxicity assay, MTT, mock-infected Vero-76; assay type: cell-based; conditions: Cercopithecus aethiops, mock-infected Vero-76 cells, mock-infected Vero-76, MTT; for CC50: value printed without *; for CC50 at 3 days: value marked *, after 3 * days
CV-B5 = experiment: Plaque reduction assay CV-B5; assay type: cell-based, human enterovirus B; conditions: Enterovirus B
[5] = Cytotoxicity assay, MTT, mock-infected MDBK; assay type: cell-based; conditions: bovine, mock-infected MDBK cells
EV-D68 = experiment: Inhibition of EV-D68-induced cytopathogenicity in HeLa cells (MTT); assay type: cell-based, human enterovirus D 68 strain Fermon; conditions: for EC50: Enterovirus D, EVD68, m.o.i. 0.01
CV-B4 = experiment: Plaque reduction assay CV-B4; assay type: cell-based, human enterovirus B; conditions: for EC50: Enterovirus B
Echo9 = experiment: Plaque reduction assay Echo9; assay type: cell-based, human enterovirus B; conditions: Enterovirus B; 50% reduction of plaque number, LLC-MK2 cells
EV-A71 [6] = experiment: Adsorption assay; assay type: cell-based, human enterovirus A71 strain BrCr; conditions: Vero-76, m.o.i. 1, 20 µM, 2 h at 4 °C
Caco-2 cells = experiment: Cell monolayer permeabilization (TEER); assay type: cell-based, human; conditions: Caco-2 monolayers, 20 µM, all time points up to 48 h
EV-A71 [7] = experiment: Protective effect on EV-A71-infected Vero-76 monolayers (cell morphology); assay type: cell-based
EV-A71 [8] = experiment: Inhibition of EV-A71-induced cytopathogenicity in Vero-76 cells (MTT); assay type: cell-based, human enterovirus A71 strain BrCr
EV-A71 [9] = experiment: Apoptosis assay, Annexin V/PI flow cytometry, EV-A71-infected Vero-76; assay type: cell-based, human enterovirus A71 strain BrCr; conditions: 96 h, m.o.i. 0.1
EV-A71 [10] = experiment: Time-of-addition assay; assay type: cell-based, human enterovirus A71 strain BrCr; conditions: Vero-76, m.o.i. 1, 20 µM
EV-A71 [11] = experiment: Cell pretreatment assay; assay type: cell-based, human enterovirus A71 strain BrCr; conditions: Vero-76 pre-incubated 2 h with 20 µM, then infected
EV-A71 [12] = experiment: Penetration assay; assay type: cell-based, human enterovirus A71 strain BrCr; conditions: Enterovirus A, EVA71, 1 h; Vero-76, 100–0.8 µM, 60 min at 37 °C; read-out: EC50 of inhibition of viral penetration
EV-A71 [13] = experiment: Virucidal activity assay; assay type: cell-based, human enterovirus A71 strain BrCr; conditions: 20 µM, 4 or 37 °C, 1 h
EV-A71 [14] = experiment: Yield reduction assay; assay type: cell-based, human enterovirus A71 strain BrCr; conditions: Vero-76, m.o.i. 0.1, 100, 20, 4 and 0.8 µM, 96 h
[15] = CVB3, 50% reduction of plaque number, read-out: EC50 CV-B3
[16] = CVB5, 50% reduction of plaque number, read-out: EC50 CV-B5
[17] = CVB4, 50% reduction of plaque number, read-out: EC50 CV-B4

Structure (SMILES) | CC50 at 4 days [1] | EC50 (CV-B3; [15]) | CC50 [2] | CC50 at 5 days [3] | EC50 (PV-1) | CC50 [4] | EC50 (CV-B5; [16]) | CC50 [5] | EC50 (EV-D68) | EC50 (CV-B4; [17]) | EC50 (Echo9) | further results
CC(C)(C)c1ccc(-c2nc3cc(F)c(F)cc3[nH]2)cc1 [Compound 5b, 2-(4-(Tert-Butyl)phenyl)-5,6-Difluoro-1H-Benzo[d]imidazole] | > 100 µM | > 100 µM | > 100 µM | > 100 µM | 10 µM | > 100 µM | > 100 µM | > 100 µM | 4 µM | > 100 µM | > 100 µM | 
C[C@@]1(O)[C@H](O)[C@@H](CO)O[C@H]1n1ccc(N)nc1=O [NM 107, 2′-C-methylcytidine, reference compound] |  |  |  |  | 6 µM | > 100 µM |  |  |  | 29 µM |  | 
CC(C)(C)c1ccc(-c2nc3cc(F)ccc3[nH]2)cc1 [Compound 4b, 2-(4-(Tert-Butyl)phenyl)-5-Fluoro-1H-Benzo[d]imidazole] | > 100 µM | > 100 µM | > 100 µM | > 100 µM | 20 µM | > 100 µM | > 100 µM | > 100 µM | > 100 µM | > 100 µM | > 100 µM | 
CC(C)c1ccc(-c2nc3cc(F)c(F)cc3[nH]2)cc1 [Compound 5a, 5,6-Difluoro-2-(4-Isopropylphenyl)-1H-Benzo[d]imidazole] | > 100 µM | > 100 µM | > 100 µM | 100 µM | 12 µM | > 100 µM | > 100 µM | > 100 µM | > 100 µM | > 100 µM | > 100 µM | EC50 EV-D68 (EV-D68; m.o.i. 0.01): not active
CC(C)(C)c1ccc(-c2nc3cc(Cl)c(Cl)cc3[nH]2)cc1 [Compound 3b, 2-(4-(Tert-Butyl)phenyl)-5,6-Dichloro-1H-Benzo[d]imidazole] | 6.4 µM | > 9 µM | 9 µM | 12 µM |  | 9 µM | 2 µM | 7 µM | > 6.4 µM | > 9 µM | > 12 µM | 
CC(C)(C)c1ccc(-c2nc3cc(Cl)ccc3[nH]2)cc1 [Compound 2b, 2-(4-(Tert-Butyl)phenyl)-5-Chloro-1H-Benzo[d]imidazole] | 100 µM | 33 µM | > 100 µM | 12 µM | 6 µM | > 100 µM | 10 µM | > 100 µM | > 100 µM | 25.5 µM | 4 µM | virus titer in adsorption assay (EV-A71 [6]): detectable reduction in the virus titer; TEER values versus control (Caco-2 cells): not significantly different from control values; also recorded: did not induce any significant change in permeability; protection of Vero-76 monolayer from EV-A71 infection (morphology) (EV-A71 [7]; 20 µM and 80 µM, m.o.i. 0.1): protect cells from EV-A71 infection; cytotoxic effect on Vero-76 monolayer (morphology) (EV-A71 [7]; up to a concentration of 80 µM): no evident cytotoxic effects; EC50 (EV-A71 [8]; 50% protection of Vero-76 cells from EV-A71-induced cytopathogenicity, MTT, m.o.i. 0.01): 3.5 µM; selectivity index (EV-A71 [8]; EV-A71, Vero-76): > 30; viability at 20 µM (EV-A71 [9]; Enterovirus A, EVA71, Vero-76, 20 µM, read-out: viability of EV-A71-infected cells): 90%; viability at 80 µM (EV-A71 [9]; Enterovirus A, EVA71, Vero-76, 80 µM, read-out: viability of EV-A71-infected cells): 80%; necrotic cells among EV-A71-infected cells (EV-A71 [9]; Vero-76, 20 µM): 10%; necrotic cells among EV-A71-infected cells (EV-A71 [9]; Vero-76, 80 µM): 20%; effect by time of addition (EV-A71 [10]): greatest effect when added along with the virus; inhibition after cell pre-incubation (EV-A71 [11]): no inhibition; EC50 (EV-A71 [12]): 6.2 µM; virucidal effect on EV-A71 infectivity (EV-A71 [13]): failed to affect the EV-A71 infectivity; reduction in EV-A71 titer (yield reduction) (EV-A71 [14]): dose-dependent reduction
CC(C)c1ccc(-c2nc3cc(Cl)ccc3[nH]2)cc1 [Compound 2a, 5-Chloro-2-(4-Isopropylphenyl)-1H-Benzo[d]imidazole] | 100 µM | 17 µM | > 100 µM | > 100 µM | 9 µM | > 100 µM | 10 µM | 80 µM | > 100 µM | ≥ 100 µM | 8 µM | EC50 CV-B4 (CV-B4; 50% reduction of plaque number): No activity
CC(C)(C)c1ccc(-c2nc3ccccc3[nH]2)cc1 [Compound 1b, 2-(4-(Tert-Butyl)phenyl)-1H-Benzo[d]imidazole] | 9 µM | > 46 µM | 20 µM | 6.5 µM | 9 µM | 46 µM | 7 µM | 9 µM | > 9 µM | > 46 µM | > 6.5 µM | CC50 at 3 days [4]: 40 µM
CC(C)c1ccc(-c2nc3cc(Cl)c(Cl)cc3[nH]2)cc1 [Compound 3a, 5,6-Dichloro-2-(4-Isopropylphenyl)-1H-Benzo[d]imidazole] | 8 µM |  | 8 µM | 7 µM | > 25.5 µM | 25.5 µM |  | 2.5 µM | > 8 µM |  | > 7 µM | EC50 (CV-B3; CVB3, read-out: EC50 CV-B3): > 25.5 µM; CC50 at 3 days [4]: 8 µM; EC50 (CV-B5; CVB5, read-out: EC50 CV-B5): > 25.5 µM; EC50 (CV-B4; CVB4, read-out: EC50 CV-B4): > 25.5 µM
CC(C)c1ccc(-c2nc3cc(F)ccc3[nH]2)cc1 [Compound 4a, 5-Fluoro-2-(4-Isopropylphenyl)-1H-Benzo[d]imidazole] | > 100 µM | > 100 µM | > 100 µM | 29.5 µM | ≥ 100 µM | > 100 µM | > 100 µM | > 100 µM | > 100 µM | > 100 µM | > 29.5 µM | 
CC(C)c1ccc(-c2nc3ccccc3[nH]2)cc1 [Compound 1a, 2-(4-Isopropylphenyl)-1H-Benzo[d]imidazole] | 9 µM | > 60 µM | 36 µM | 6 µM | 11.5 µM | 60 µM | > 60 µM | 65 µM | > 9 µM | > 60 µM | > 6 µM | CC50 at 3 days [4]: 24 µM
CCOC(=O)/C=C/[C@H](C[C@@H]1CCNC1=O)NC(=O)[C@@H](CC(=O)[C@@H](NC(=O)c1cc(C)on1)C(C)C)Cc1ccc(F)cc1 [Rup, Rupintrivir, reference compound] |  |  |  |  | 0.07 µM | > 100 µM |  |  |  |  |  | 
Cc1cc(CCCOc2c(C)cc(-c3noc(C(F)(F)F)n3)cc2C)on1 [Plc, Pleconaril, reference compound] |  | 2 ± 0.005 µM |  | > 100 µM |  | > 100 µM | 2 ± 0.5 µM |  | 0.3 µM |  | 0.1 µM | 
